Patent publication US12331040B2 (Karyopharm Therapeutics Inc., priority 2013, dated 2025)

Columns and labels:
NCI-H820 cells = test: MTT cell proliferation assay; format: cell-based; conditions: 72-hour MTT
In short: (§1)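 72-h MTT proliferation; 5,000-10,000 cells/well, overnight attachment; cpd 1 nM–30 μM, 8 concs; MTT ~4 h, formazan solubilized, OD490; % inhibition vs negative control, mean±SE, usually duplicate.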

SW-1116 cells = test: MTT cell proliferation assay; format: cell-based; conditions: Homo sapiens, 72-hour MTT
In short: as §1

MCF-12A cells = test: MTT cell proliferation assay; format: cell-based; conditions: Homo sapiens, 72-hour MTT
In short: as §1

Raji cells = test: MTT cell proliferation assay; format: cell-based; conditions: Homo sapiens, 72-hour MTT
In short: as §1

NCI-H187 cells = test: MTT cell proliferation assay; format: cell-based; conditions: Homo sapiens, 72-hour MTT
In short: as §1

L3.6pl cells = test: MTT cell proliferation assay; format: cell-based; conditions: Homo sapiens, 72-hour MTT
In short: as §1

NHEK cells = test: MTT cell proliferation assay; format: cell-based; conditions: 72-hour MTT
In short: as §1

SW-48 cells = test: MTT cell proliferation assay; format: cell-based; conditions: Homo sapiens, SW48, 72-hour MTT
In short: as §1

BL-40 cells = test: MTT cell proliferation assay; format: cell-based; conditions: 72-hour MTT
In short: as §1

SK-CO-1 cells = test: MTT cell proliferation assay; format: cell-based; conditions: Homo sapiens, 72-hour MTT
In short: as §1

NCI-H520 cells = test: MTT cell proliferation assay; format: cell-based; conditions: Homo sapiens, 72-hour MTT
In short: as §1

NCI-H1650 cells = test: MTT cell proliferation assay; format: cell-based; conditions: Homo sapiens, 72-hour MTT
In short: as §1

HS-Sultan cells = test: MTT cell proliferation assay; format: cell-based; conditions: 72-hour MTT
In short: as §1

THP1 cells = test: MTT cell proliferation assay; format: cell-based; conditions: Homo sapiens, THP-1, 72-hour MTT
In short: as §1

SNU-398 cells = test: MTT cell proliferation assay; format: cell-based; conditions: Homo sapiens, 72-hour MTT
In short: as §1

U-266 cells = test: MTT cell proliferation assay; format: cell-based; conditions: Homo sapiens, 72-hour MTT
In short: as §1

HCC-4006 cells = test: MTT cell proliferation assay; format: cell-based; conditions: Homo sapiens, HCC4006, 72-hour MTT
In short: as §1

PATU-8902 cells = test: MTT cell proliferation assay; format: cell-based; conditions: 72-hour MTT
In short: as §1

OCIAML5 cells = test: MTT cell proliferation assay; format: cell-based; conditions: Homo sapiens, OCI-AML-5, 72-hour MTT
In short: as §1

MDA-MB-175 cells = test: MTT cell proliferation assay; format: cell-based; conditions: 72-hour MTT
In short: as §1

HuCCT-1 cells = test: MTT cell proliferation assay; format: cell-based; conditions: Homo sapiens, 72-hour MTT
In short: as §1

Colo-201 cells = test: MTT cell proliferation assay; format: cell-based; conditions: Homo sapiens, 72-hour MTT
In short: as §1

SW-620 cells = test: MTT cell proliferation assay; format: cell-based; conditions: Homo sapiens, 72-hour MTT
In short: as §1

[1] = system: PAK4 signalling in NHDF cells; test: Western blots of PAK4 signalling in normal cells (NHDF); format: cell-based, human; conditions: NHDF normal cell line; 72-hour treatment, increasing concentrations; Western blot
Experimental: Normal human dermal fibroblasts (NHDF) and normal lung cells (IMR-90) were treated with Compound 585 for 72 hours, at which time the cells were lysed in RIPA buffer. The lysates were run on SDS-PAGE and Western blots of phospho-PAK4, PAK4, phospho-cofilin, cofilin, phospho-β-catenin, β-catenin, PARP and caspase-3 were performed.

cancer cell lines = test: 72-hour MTT cell proliferation assay, summary over the cancer cell lines tested; format: cell-based
Experimental: The MTT cell proliferation assay was used to study the cytotoxic properties of the compounds. The assay was performed according to the method described by Roche Molecular Biochemicals, with minor modifications. The assay is based on the cleavage of the tetrazolium salt, MTT, in the presence of an electron-coupling reagent. The water-insoluble formazan salt produced must be solubilized in an additional step. Cells grown in a 96-well tissue culture plate were incubated with the MTT solution for approximately 4 hours. After this incubation period, a water-insoluble formazan dye formed. After solubilization, the formazan dye was quantitated using a scanning multi-well spectrophotometer (ELISA reader). […] The cells were seeded at 5,000-10,000 cells in each well of 96-well plate in 100 μL of fresh culture medium and were allowed to attach overnight. The stock solutions of the compounds were diluted in 100 μL cell culture medium to obtain eight concentrations of each test compound, ranging from 1 nM to 30 μM. […] All optical densities were measured at 490 nm using a Vmax Kinetic Microplate Reader (Molecular Devices). In most cases, the assay was performed in duplicate and the results were presented as a mean percent inhibition to the negative control±SE. The following formula was used to calculate the percent of inhibition: Inhibition (%)=(1−(ODo/OD))×100.
Compounds 504, 510, 525 and 585 were further tested against selected solid and hematological cancer cell lines and selected normal cell lines in a 72-hour MTT cell proliferation assay.

U2OS cells [2] = test: Western blots of autophagy, stress and cell cycle markers in U2OS cells; format: cell-based, human; conditions: 1 μM or 10 μM, 48 hours, Western blot
Experimental: U2OS cells were plated in a 6-well plate overnight. The next day, the cells were treated with 1 μM or 10 μM Compound 585 for 48 hours, then collected and lysed in RIPA buffer. The lysate was run on SDS-PAGE and Western blots of PAK4, PUMA, CHOP, p21, cyclin D, MLH1, p-AMPK, AMPK and LC3 were performed.

U2OS cells [3] = test: BrdU incorporation and cell cycle analysis by flow cytometry in U2OS cells; format: cell-based, human; conditions: 1 μM, BrdU/7-AAD flow cytometry
Experimental: U2OS cells were treated with DMSO or 1 μM Compound 585 for one, two or three days. At each time point, cells were treated with 10 μM BrdU for 2 hours, and then collected by trypsinization. Cells were subsequently washed, fixed and stained for BrdU and total DNA (7-AAD). BrdU incorporation and cell cycle analysis was performed using flow cytometry on a BD Fortessa Analyzer. Data was then analyzed using FCS Express 4 software.

Nc1ccc(/C=C/C(=O)NCc2cc3cc(-c4ccc(C(=O)N5CCC(F)(F)CC5)cn4)cc(C(F)(F)F)c3o2)cn1 [Compound 585, (E)-3-(6-aminopyridin-3-yl)-N-((5-(5-(4,4-difluoropiperidine-1-carbonyl)pyridin-2-yl)-7-(trifluoromethyl)benzofuran-2-yl)methyl)acrylamide]
IC50 (NCI-H820 cells): 2840 nM | IC50 (SW-1116 cells): 970 nM | IC50 (MCF-12A cells): 380 nM | IC50 (Raji cells): 90 nM | IC50 (NCI-H187 cells): 70 nM | IC50 (L3.6pl cells): 70 nM | IC50 (NHEK cells): 10400 nM | IC50 (SW-48 cells): 170 nM | IC50 (BL-40 cells): 300 nM | IC50 (SK-CO-1 cells): 1190 nM | IC50 (NCI-H520 cells): 20 nM | IC50 (NCI-H1650 cells): 530 nM | IC50 (HS-Sultan cells): 200 nM | IC50 (THP1 cells): 20 nM | IC50 (SNU-398 cells): 4420 nM | IC50 (U-266 cells): 310 nM | IC50 (HCC-4006 cells): 740 nM | IC50 (PATU-8902 cells): 510 nM | IC50 (OCIAML5 cells): 50 nM | IC50 (MDA-MB-175 cells): > 10000 nM | IC50 (HuCCT-1 cells): 60 nM | IC50 (Colo-201 cells): 560 nM | IC50 (SW-620 cells): 140 nM | effect on PAK4 signalling (phospho-PAK4, PAK4, phospho-cofilin, cofilin, phospho-β-catenin, β-catenin, PARP, caspase 3) [1]: little to no effect | share of the hematological cancer cell lines tested with an IC50 of less than 500 nM (cancer cell lines; 30/33 hematological cancer cell lines): 91% | share of the solid cancer cell lines tested with an IC50 of less than 500 nM (cancer cell lines; 42/93 solid cancer cell lines): 45% | share of the cancer cell lines tested with an IC50 of less than 1 μM (cancer cell lines; 91/126 cancer cell lines): 72% | cell cycle proteins, p21 and cyclin D1 (U2OS cells [2]): reduced | markers of stress response and autophagy (AMPK phosphorylation, short form of LC3 lysosome marker) (U2OS cells [2]): induced markers of stress response and autophagy | cell cycle changes: Sub-G1 phase (U2OS cells [3]): started to appear around 48-72 hours | cell cycle changes: S phase and G2 phase (U2OS cells [3]; at 48-72 hours): loss of S phase and increase in G2 phase
